Laboratory results from publication PMC12096834, “Antimicrobial peptide plectasin recombinantly produced in Escherichia coli disintegrates cell walls of gram-positive bacteria, as proven by transmission electron and atomic force microscopy” (Journal of Bacteriology, 2025).

Columns and labels:
Test in all cases: AFM cell thickness, stiffness and roughness
Assay type in all cases: cell-based
Staphylococcus aureus = conditions: plectasin 4 x MIC, CASPON-plectasin same molar quantity, mean ± SD of 20 measurements; for Stiffness: AFM force spectroscopy, untreated 5.3 ± 2.3
Description: (§1) All AFM measurements were performed on a Vecoo-Bruker AFM (Diamond, Chilton, UK), including imaging and force distance measurement. Before and after measurements, the triangular cantilever was cleaned with EtOH and acetone. Sensitivity and the spring constant were calibrated by the thermal tune method by making use of the equipartition theorem, preceded by continued ramping. After calibration, the spring constant was set to 0.4017 N/m for performing measurements.
(§2) Bacterial suspensions were prepared by taking bacterial colonies out of overnight grown agar plates and resuspending them in MHB. The suspension was set to an OD625 extinction of 0.15–0.20 corresponding to a bacterial cell density of approximately 2 × 10^8 CFU/mL. Then, 3 × 1 mL of suspension was transferred into a 2-mL reaction tube and mixed with either plectasin, CASPON-plectasin, or PBS buffer to obtain volume conditions. The concentration for plectasin was 4 x MIC, and CASPON-plectasin was of the same molar quantity as plectasin. After incubation, the bacterial suspensions were washed with PBS three times, using mild centrifugation conditions for each wash cycle (3,000 g, 15 minutes) to avoid cell damage. The washed bacterial suspension was transferred to borosilicate glass slides (24 mm diameter, 0.1 mm thickness, Menzel Gläser, Braunschweig, Germany) and left to adhere to the surface (electrostatics) for 1 hour. Afterward, the slides were washed with MilliQ water and transferred to AFM.
(§3) Bacterial images were visualized by square areas of 2 × 2 µm^2 up to 25 × 25 µm^2 with a resolution of 512 × 512 pixels. At least 15 images were taken per sample with different square dimensions for proper visualization. Surface roughness and shapes of the bacterial cell were estimated using Gwyddion software after applying a mean filter to the raw images. A total of 20 measurements were taken on cells for each parameter, providing enough values for statistical evaluation. For additional information and an illustration of the determination principle, please refer to the supplementary material (Fig. S3), which includes an example on S. aureus. By using the following equations, the surface roughness of a selected area of this flattened area was calculated from the standard deviation in the height image. The mean roughness (Ra) and the root-mean-square roughness (Rq or RMS) were used to characterize the surface of different samples:
(§4) After the position of the bacteria was determined, force spectroscopy was performed. Measurement of the central region of bacteria was performed with an approach speed of 10 µm/s and a maximum force of 2 nN. A curve length of 1 µm and a sampling rate of 2 kHz were used. At least 20 bacteria per sample were measured. Analysis of the force distance curves was performed using the software NanoScope Analysis 1.5. For calculating the stiffness of each bacterial cell, the following question was utilized:
(§5) where keff is the effective stiffness (received from the slope of the measured curve), ksample is the stiffness of the sample (bacterial cell), and kspring is the spring constant (0.4017 N/m). All constants have the unit N/m. Rearrangement of the formula leads to the following relation: […]
(§6) Measurements were pooled, and properties were calculated as described above. For each parameter, 20 measurements were used to obtain appropriate statistical values. Analysis of variance (ANOVA) was performed, followed by Student’s t-test, which is a statistical procedure that compares the averages of two independent groups (plectasin/CASPON-plectasin treated vs untreated) to determine significance in the surface roughness and stiffness of bacteria. Significances are indicated in figures and reported as “ns” for P > 0.05, “*” for P ≤ 0.05, “**” for P ≤ 0.01, and “***” for P ≤ 0.001.

Listeria monocytogenes = conditions: plectasin 4 x MIC, CASPON-plectasin same molar quantity, mean ± SD of 20 measurements; for Stiffness: AFM force spectroscopy, untreated 5.4 ± 3.1
Description: as §1, §2, §3, §4, §5, §6

Streptococcus pneumoniae = conditions: plectasin 4 x MIC, CASPON-plectasin same molar quantity, mean ± SD of 20 measurements; for Stiffness: AFM force spectroscopy, untreated 6.2 ± 2.4
Description: as §1, §2, §3, §4, §5, §6

Enterococcus faecalis = conditions: plectasin 4 x MIC, CASPON-plectasin same molar quantity, mean ± SD of 20 measurements; for Stiffness: AFM force spectroscopy, untreated 8.0 ± 3.7
Description: as §1, §2, §3, §4, §5, §6

CC[C@H](C)[C@@H]1NC(=O)[C@H](CO)NC(=O)[C@H](CCCCN)NC(=O)[C@@H]2CSSC[C@@H](C(=O)N[C@@H](Cc3ccc(O)cc3)C(=O)O)NC(=O)[C@H](CCCCN)NC(=O)[C@@H]3CSSC[C@H](NC(=O)[C@H](CCC(N)=O)NC(=O)[C@H](CCSC)NC(=O)[C@H](CC(=O)O)NC(=O)[C@H](CC(=O)O)NC(=O)[C@H](CCC(=O)O)NC(=O)[C@H](CC(=O)O)NC(=O)[C@H](Cc4c[nH]c5ccccc45)NC(=O)[C@@H]4CCCN4C(=O)CNC(=O)[C@H](CC(N)=O)NC(=O)[C@@H](NC(=O)CNC(=O)[C@H](Cc4ccccc4)NC(=O)CN)CSSC[C@H](NC(=O)[C@H](Cc4ccc(O)cc4)NC(=O)CNC(=O)CNC(=O)[C@H](CCCCN)NC(=O)[C@H](Cc4ccc(O)cc4)NC(=O)CNC(=O)[C@H](CCCCN)NC1=O)C(=O)N[C@@H](C)C(=O)N[C@@H](CCCCN)C(=O)NCC(=O)NCC(=O)N[C@@H](Cc1ccccc1)C(=O)N[C@@H](C(C)C)C(=O)N3)C(=O)N[C@@H](Cc1c[nH]cn1)C(=O)N[C@@H](CC(N)=O)C(=O)N[C@@H](Cc1c[nH]cn1)C(=O)N2 [Plectasin, plectasin]
Stiffness (Staphylococcus aureus): approximately 4 N/m | Stiffness (Staphylococcus aureus; SD): 3.7 ± 1.7 N/m | Ra (mean roughness) (Staphylococcus aureus; AFM, untreated 19.4 ± 3.5, SD): 24.76 ± 6.7 nm | Rq (root-mean-square roughness) (Staphylococcus aureus; AFM, untreated 24.0 ± 4.4, SD): 30.9 ± 8.0 nm | Cell thickness (Staphylococcus aureus; AFM, untreated 485.9 ± 26.5, SD): 467.2 ± 45.1 nm | Stiffness (Listeria monocytogenes): approximately 4 N/m | Stiffness (Listeria monocytogenes; SD): 3.5 ± 1.4 N/m | Ra (mean roughness) (Listeria monocytogenes; AFM, untreated 8.1 ± 2.5, SD): 13.5 ± 2.4 nm | Rq (root-mean-square roughness) (Listeria monocytogenes; AFM, untreated 11.2 ± 3.4, SD): 16.9 ± 2.8 nm | Cell thickness (Listeria monocytogenes; AFM, untreated 297.0 ± 13.3, SD): 297.8 ± 14.0 nm | Stiffness (Streptococcus pneumoniae): approximately 4 N/m | Stiffness (Streptococcus pneumoniae; SD): 4.7 ± 1.1 N/m | Ra (mean roughness) (Streptococcus pneumoniae; AFM, untreated 15.5 ± 4.2, SD): 19.7 ± 5.3 nm | Rq (root-mean-square roughness) (Streptococcus pneumoniae; AFM, untreated 18.8 ± 4.8, SD): 24.5 ± 6.0 nm | Cell thickness (Streptococcus pneumoniae; AFM, untreated 375.8 ± 28.4, SD): 366.0 ± 54.1 nm | Stiffness (Enterococcus faecalis): approximately 4 N/m | Stiffness (Enterococcus faecalis; SD): 4.6 ± 1.9 N/m | Ra (mean roughness) (Enterococcus faecalis; AFM, untreated 10.0 ± 2.5, SD): 19.4 ± 3.2 nm | Rq (root-mean-square roughness) (Enterococcus faecalis; AFM, untreated 12.2 ± 3.4, SD): 23.5 ± 3.4 nm | Cell thickness (Enterococcus faecalis; AFM, untreated 480.3 ± 30.6, SD): 473.5 ± 47.5 nm
